For one experiment, the system named is SVEC4-10 cells. Nature of the experiment: Tubule formation assay on GF-reduced Matrigel, SVEC4-10 cells. In kind it is cell-based, Murine. The settings on record: FIG. 4, 6 h. As to the method:
Adult human dermal microvascular endothelial cells (HuDMECs) were obtained commercially (TCS Biologicals, Buckinghamshire, United Kingdom) and cultured in microvascular endothelial cell growth medium (EGM). This medium contains heparin (10 ng/ml), hydrocortisone, human epidermal growth factor (10 ng/ml), human fibroblast growth factor (10 ng/ml) (such endothelial growth factors are necessary for routine passaging of HuDMECs in culture) and dibutyryl cyclic AMP. This was supplemented with 5% heat-inactivated FCS, 50 μg/ml gentamicin and 50 ng/ml amphotericin B (TCS Biologicals, United Kingdom). Murine endothelial cells (SVEC 4-10) were obtained from the ATCC and cultured in DMEM+10% FCS. Cells were grown at 37° C. in a 100% humidified incubator with a gas phase of 5% CO2 and routinely screened for Mycoplasma. Prior to their use in the assays indicated below, HuDMECs were grown to 80% confluency, incubated in DMEM+1% FCS for 2 h, then harvested with 0.05% trypsin solution, washed twice and resuspended to the cell density required for each assay (see below).
24 well plates were coated with 30 μl/well of growth factor-reduced (GF-reduced) Matrigel (Becton Dickinson Labware, Bedford, Mass.). […] Tubule formation was assessed by counting the number of tubule branches and the total area covered by tubules in each field of view using image analysis software supplied by Scion Image.

Another experiment relates to CT26 tumours. Nature of the experiment: In vivo efficacy on growth of subcutaneous CT26 tumours. The arrangement: species or system Balb/c mice. The settings on record: daily ip α1-24, p<0.001. As to the method:
Experiments were performed on six-week-old Balb/C mice weighing 15 g, obtained from Sheffield Field Laboratories. All experiments were approved by the Home Office Project Licence Number PPL50/1414.
The CT26 cell line was maintained by in vitro passage in Dulbecco's Minimal Eagles Medium containing 10% foetal calf serum, and 1% penicillin and streptomycin and maintained at 37° C. in humidified atmosphere of 5% CO2 in air. The cell line was routinely checked to ensure freedom from mycoplasma (Mycoplasma rapid detection system, Gena-Probe Incorporated, U.S.A.).
Animals were anaesthetised with an intraperitoneal injection of diazepam (0.5 mg/ml, Dumex Ltd.) and hypnorm (fentanyl citrate 0.0315 mg/ml and fluanisone 1 mg/ml, Janssen Pharmaceutical Ltd.) in the ratio of 1:1 at a volume of 0.1 ml/200 g body weight, with supplementation as required to maintain adequate anaesthesia. […] Tumour growth and animal weights were monitored daily.
Tumour growth was measured daily and when the majority of animals in the cohort had tumour volumes of >100 mm^3 but <350 mm^3 animals were divided into experimental and control groups. […]
Tumour volumes were assessed by calliper measurements of the perpendicular diameters and volumes estimated using the equation: […]
where a is the smaller and b the larger diameter Animals were weighed on a daily basis and the general well being monitored.

For the sequence “ADSGEGDFLAEGGGVRGPRVVERH (ADSGEGDFLAEGGGVRGPRVVERH) [α1-24, 24 amino acid peptide from the amino terminus of the fibrinogen α chain]”, the “tubule formation (area covered by tubules)” value in the experiment with SVEC4-10 cells (absence of growth factors) and in the experiment on SVEC4-10 cells (presence of growth factors (VEGF 10 ng/ml or bFGF 10 ng/ml)) was “significantly (p<0.03) reduced tubule formation” throughout. Further, the final tumour volume in the experiment on CT26 tumours (Example 1, day 14, starting volume 235±30, vehicle control final 2245±371) worked out at 1341±145 mm^3; in the experiment on CT26 tumours (Example 2, day 12, starting volume 338±39, vehicle control final 3072±255) it was 2029±504 mm^3.

The values are drawn from patent publication US20040039157A1, “Anti-angiogenic peptides” (priority 2000, published 2004).
